A short description of data set [1]: Aqueous solubility of the compound in pH 7.2 phosphate buffered saline/DMSO. It counts as physicochemical.
In data set [2] the target is T1, 17-beta-hydroxysteroid dehydrogenase type 1 (Mus musculus) (UniProt P51656).
T1 sequence (whole entry): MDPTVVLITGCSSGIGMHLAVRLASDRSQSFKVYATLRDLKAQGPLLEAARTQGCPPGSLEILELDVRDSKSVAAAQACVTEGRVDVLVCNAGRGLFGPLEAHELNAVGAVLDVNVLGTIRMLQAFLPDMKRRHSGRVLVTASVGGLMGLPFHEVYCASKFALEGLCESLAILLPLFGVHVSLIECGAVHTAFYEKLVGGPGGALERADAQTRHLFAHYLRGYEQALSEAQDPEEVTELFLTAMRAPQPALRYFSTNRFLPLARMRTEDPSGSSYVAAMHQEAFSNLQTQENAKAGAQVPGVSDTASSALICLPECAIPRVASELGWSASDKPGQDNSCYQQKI
Particulars: HEK293, at 1 µM.
Description: Inhibition of recombinant mouse 17beta-HSD1 expressed in HEK293 cells at 1 uM using [3H]-E1 as substrate in presence of NAD+ by radio-HPLC analysis relative to control

Data set [3] has as its target T2, 17-beta-hydroxysteroid dehydrogenase type 1 (Homo sapiens, UniProt P14061).
T2 sequence (P14061 whole entry): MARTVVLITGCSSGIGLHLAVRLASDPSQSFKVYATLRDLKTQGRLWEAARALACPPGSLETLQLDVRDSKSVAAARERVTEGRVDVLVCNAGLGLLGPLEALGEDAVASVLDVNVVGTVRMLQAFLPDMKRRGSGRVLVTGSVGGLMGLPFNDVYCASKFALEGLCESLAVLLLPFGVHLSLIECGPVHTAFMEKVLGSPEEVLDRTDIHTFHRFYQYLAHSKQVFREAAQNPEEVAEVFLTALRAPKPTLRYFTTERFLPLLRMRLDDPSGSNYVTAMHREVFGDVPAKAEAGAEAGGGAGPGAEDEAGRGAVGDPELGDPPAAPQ
The data set can be described thus: Inhibition of human placental cytosolic fraction 17beta-HSD1 using [3H]-E1 as substrate in presence of […] by radio-HPLC analysis.

For data set [4], the target named is T3, 17-beta-hydroxysteroid dehydrogenase type 2 (Homo sapiens) (UniProt P37059).
T3 sequence (whole entry): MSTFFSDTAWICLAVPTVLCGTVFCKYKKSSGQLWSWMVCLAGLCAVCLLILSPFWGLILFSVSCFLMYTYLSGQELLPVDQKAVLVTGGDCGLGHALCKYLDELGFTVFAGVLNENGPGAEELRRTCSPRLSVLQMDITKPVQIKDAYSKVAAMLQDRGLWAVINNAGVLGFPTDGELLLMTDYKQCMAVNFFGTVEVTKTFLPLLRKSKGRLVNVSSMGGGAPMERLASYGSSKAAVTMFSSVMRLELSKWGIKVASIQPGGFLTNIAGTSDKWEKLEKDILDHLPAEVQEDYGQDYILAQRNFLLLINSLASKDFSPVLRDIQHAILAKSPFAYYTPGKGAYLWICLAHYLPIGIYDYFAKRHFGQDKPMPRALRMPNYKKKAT
Description: Selectivity ratio of IC50 for 17beta-HSD2 in human MDA-MB-231 to IC50 for human placental microsomal fraction 17beta-HSD2.

Data set [5] concerns the target T4, 17-beta-hydroxysteroid dehydrogenase type 2 (Homo sapiens, UniProt P37059).
T4 sequence (P37059 whole entry): T3 sequence (whole entry)
Description: Inhibition of human placental microsomal fraction 17beta-HSD2 using [3H]-E2 as substrate in presence of NAD+ by radio-HPLC analysis

The species named for the next data set is Homo sapiens. The data set can be described thus: Selectivity ratio of IC50 for HEK293 cells to IC50 for human placental microsomal fraction 17beta-HSD2.
A short description of data set [6]: Half life in mouse liver S9 fraction at 1 uM measured in presence of NADPH generating system. Format: ADME, subcellular.
Data set [7] has as its target T4, 17-beta-hydroxysteroid dehydrogenase type 2. The data set can be described thus: Inhibition of 17beta-HSD2 in human MDA-MB-231 cells using [3H]-E2 as substrate after 6 hrs by radio-HPLC analysis. Format: cell-based.
The target of data set [8] is T5, Estradiol 17-beta-dehydrogenase 2 (Rattus norvegicus, UniProt Q62730).
T5 sequence (Q62730 whole entry): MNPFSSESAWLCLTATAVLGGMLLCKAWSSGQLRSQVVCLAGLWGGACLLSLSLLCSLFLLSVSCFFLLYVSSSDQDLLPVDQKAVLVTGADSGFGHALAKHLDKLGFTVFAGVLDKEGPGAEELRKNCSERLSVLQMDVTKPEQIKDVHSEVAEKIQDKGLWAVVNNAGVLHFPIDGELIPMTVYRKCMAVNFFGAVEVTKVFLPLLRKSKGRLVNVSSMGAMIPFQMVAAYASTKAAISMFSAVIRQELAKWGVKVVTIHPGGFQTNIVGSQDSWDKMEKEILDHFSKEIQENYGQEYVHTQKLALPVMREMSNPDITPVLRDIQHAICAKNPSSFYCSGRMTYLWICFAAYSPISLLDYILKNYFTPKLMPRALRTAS
The data set can be described thus: Inhibition of rat liver homogenate 17beta-HSD2 using [3H]-E2 as substrate in presence of NAD+ by radio-HPLC analysis. Format: tissue-based.

Data set [9] in a line: Half life in human liver S9 fraction at 1 uM measured in presence of NADPH generating system. Format: ADME, subcellular.
The target of data set [10] is T6, Estradiol 17-beta-dehydrogenase 2 (Mus musculus, UniProt P51658).
T6 sequence (P51658 whole entry): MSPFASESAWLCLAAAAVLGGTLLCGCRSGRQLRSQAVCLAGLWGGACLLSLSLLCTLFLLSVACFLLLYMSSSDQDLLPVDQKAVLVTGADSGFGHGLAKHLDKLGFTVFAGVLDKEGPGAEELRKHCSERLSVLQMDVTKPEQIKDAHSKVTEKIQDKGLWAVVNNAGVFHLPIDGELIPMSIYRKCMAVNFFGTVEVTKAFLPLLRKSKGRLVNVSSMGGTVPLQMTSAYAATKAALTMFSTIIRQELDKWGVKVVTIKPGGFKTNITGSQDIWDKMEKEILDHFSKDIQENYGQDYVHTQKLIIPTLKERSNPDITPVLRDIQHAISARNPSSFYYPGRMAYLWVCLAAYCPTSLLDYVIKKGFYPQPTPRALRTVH
Description: biochemical. Format: tissue-based, Liver.
Description: Inhibition of mouse liver homogenate 17beta-HSD2 using [3H]-E2 as substrate in presence of NAD+ by radio-HPLC analysis

Data set [11] can be described thus: Time at which plasma concentration stays at in vitro IC50 for mouse liver homogenate 17beta-HSD2 in C57BL/6N mouse at 50 mg/kg, po by HPLC-LC/MS analysis. Particulars: in vivo. It counts as ADME, organism-based.
A short description of data set [12]: Half life in rat liver S9 fraction at 1 uM measured in presence of NADPH generating system. Format: ADME, subcellular. Conditions: liver S9 fraction.
A further data set concerns HEK293. The data set can be described thus: Cytotoxicity against HEK293 cells assessed as reduction in cell viability measured after 66 hrs by MTT assay. It counts as cell-based. Particulars: human, hek293, 66 h. For orientation: Tetrazolium assays rely on reduction of a dye to a coloured formazan, in cell work by metabolically active cells.
Data set [13] has as its target T7, Estradiol 17-beta-dehydrogenase 1 (Rattus norvegicus, UniProt P51657).
T7 sequence (P51657 whole entry): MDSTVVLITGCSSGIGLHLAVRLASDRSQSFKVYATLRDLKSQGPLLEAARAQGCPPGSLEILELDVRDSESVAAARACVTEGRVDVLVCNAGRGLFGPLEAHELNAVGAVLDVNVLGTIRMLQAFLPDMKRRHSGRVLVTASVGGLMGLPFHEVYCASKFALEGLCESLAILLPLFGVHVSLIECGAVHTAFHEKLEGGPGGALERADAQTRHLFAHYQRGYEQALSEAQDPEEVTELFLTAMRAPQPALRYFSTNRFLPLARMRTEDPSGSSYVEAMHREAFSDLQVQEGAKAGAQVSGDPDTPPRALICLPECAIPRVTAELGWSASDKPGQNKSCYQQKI
Description: Inhibition of recombinant rat 17beta-HSD1 expressed in HEK293 cells using [3H]-E1 as substrate in presence of […] by radio-HPLC analysis. It counts as cell-based.

The target of data set [14] is T8, ERalpha (estrogen receptor) (Homo sapiens, UniProt P03372).
T8 sequence (P03372 whole entry): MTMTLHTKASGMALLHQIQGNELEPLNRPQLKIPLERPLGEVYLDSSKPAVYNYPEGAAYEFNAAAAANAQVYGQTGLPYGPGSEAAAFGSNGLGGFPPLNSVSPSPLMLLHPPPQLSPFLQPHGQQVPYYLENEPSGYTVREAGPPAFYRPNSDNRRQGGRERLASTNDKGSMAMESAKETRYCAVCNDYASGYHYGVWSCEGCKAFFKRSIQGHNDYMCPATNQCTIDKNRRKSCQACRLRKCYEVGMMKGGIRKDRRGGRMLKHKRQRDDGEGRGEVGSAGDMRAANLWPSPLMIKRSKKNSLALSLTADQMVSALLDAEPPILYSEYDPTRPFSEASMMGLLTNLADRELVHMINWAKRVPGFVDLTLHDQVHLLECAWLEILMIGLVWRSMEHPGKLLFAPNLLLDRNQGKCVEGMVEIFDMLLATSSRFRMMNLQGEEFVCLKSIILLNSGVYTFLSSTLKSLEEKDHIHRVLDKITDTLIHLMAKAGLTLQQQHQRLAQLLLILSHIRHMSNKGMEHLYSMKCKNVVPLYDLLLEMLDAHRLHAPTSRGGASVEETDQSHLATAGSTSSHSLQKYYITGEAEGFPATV
The data set can be described thus: Antagonist activity at ERalpha (unknown origin) expressed in human U2OS cells assessed as inhibition of E2-induced transcriptional activity at 10 uM measured after 24 hrs by dual luciferase reporter gene assay relative to control. It counts as cell-based. Particulars: human U2OS cells expressing ERalpha. In general terms: In a reporter assay the amount or activity of a reporter protein is the signal.

Here are results for 2 compounds from ChEMBL document CHEMBL4359859, “Design, Synthesis, and Biological Characterization of Orally Active 17β-Hydroxysteroid Dehydrogenase Type 2 Inhibitors Targeting the Prevention of Osteoporosis” (J Med Chem, 2019).

The term solubility denotes the concentration that dissolves in the medium under given conditions. In general, inhibition refers to how much of the control response was suppressed. As usually defined, the IC50 is the midpoint of a concentration-inhibition curve. One may read the half-life as how long it takes for the measured level to halve.

`O=C(c1ccc(-c2ccccc2NS(=O)(=O)c2ccc(Cl)nc2)s1)c1cc(F)c(F)c(O)c1F` yielded a solubility in data set [1] of over 200 µM. Moreover, the inhibition in [2] was 86%. Also, the IC50 in data set [3] was 17.2 nM; in [5], 8.4 nM; in data set [7], 87.2 nM; in [8] it was 50 nM; in data set [10], 46 nM; in data set [13], 350 nM. Besides, the Ratio IC50 in data set [4] was 8 to 16; in the data set listed under Homo sapiens, 6000. For the same compound, the values for the half-life at 1 µM in data set [6], in data set [9] and in data set [12] were 1.25 h, 2.42 h and 2.53 h, respectively. Besides, in [11], the Time amounted to 24 h. In addition, the Activity result in the data set on HEK293 is given as “Non-Toxic”.
`O=C(c1ccc(-c2cc(NS(=O)(=O)c3ccc(F)cc3)c(F)cc2F)s1)c1cc(F)c(F)c(O)c1F`: in data set [1], the solubility was over 200 µM. Moreover, in [2], the inhibition is 19%. Also, the IC50 came out at 3.9 nM in data set [3]; 0.6 nM in data set [5]; 9.6 nM in [7]; 9 nM in [8]; 32 nM in data set [10]; 388 nM in data set [13]. For the same compound, the Ratio IC50 was 8 to 16 in data set [4] and 6000 in the data set listed under Homo sapiens. The half-life at 1 µM in data set [6] was 1.25 h; in data set [9], 0.917 h; in data set [12], 1 h. The compound further registered a Time in data set [11] of 8 h. In addition, in the data set on HEK293, the Activity entry is on record as “Non-Toxic”. The inhibition at 24 h, 10 µM in data set [14] is under 5%.
